# According to patent US20210290788A1, “RADIOIMMUNOCONJUGATES AND DNA DAMAGE AND REPAIR INHIBITOR COMBINATION THERAPY” (Fusion Pharmaceuticals Inc., priority 2018, published 2021):
# Key:
# [1] = system: Colo-205 (colorectal cancer) xenograft model; experiment: Example 5 in vivo synergy study, olaparib dosing schedule 2, Colo-205 xenograft; conditions: FPI-1434 50 nCi, olaparib 50 mg/kg i.p. 5 days on, 2 days off for 28 days, first dose 24 hours after FPI-1434, up to 28 days
# Method: Combination groups (n=5) were dosed with olaparib (i.p.) 5 days on, 2 days off, using a 50 mg/kg dose for 28 days. The first dose of olaparib was administered 24 hours following FPI-1434 administration.
# (§1) Relative tumor volume was evaluated up to 28 days after administration.
# y-H2AX foci = experiment: Example 3 immunohistochemical analysis of y-H2AX foci; assay type: in vivo; conditions: after olaparib treatment; Colo-205 and A549 xenograft study
# Method: (§2) An in vivo efficacy study was conducted with olaparib alone as a single agent. Olaparib was given as a single agent at different doses in a Colo-205 (colorectal cancer) xenograft model and in an A549 (NSCLC) xenograft model. Groups of animals (n=5) were dosed with olaparib (i.p.) 5 days on, 2 days off using 10-100 mg/kg doses.
# [2] = system: A549 (NSCLC) xenograft model; experiment: Example 3 in vivo efficacy of olaparib as single agent, A549 xenograft
# Method: as §2
# [3] = system: A549 (NSCLC) xenograft model; experiment: Example 4 in vivo synergy study, olaparib dosing schedule 1, A549 xenograft; conditions: [225Ac]-FPI-1434 200 nCi, olaparib 50 mg/kg i.p. 5 days on, 2 days off for 28 days, pre-dosed 3 times prior to FPI-1434, up to 28 days
# Method: (§3) Combination groups (n=5) were dosed with olaparib (i.p.) 5 days on, 2 days off, using a 50 mg/kg dose for 28 days. Animals were pre-dosed with olaparib 3 times prior to the [^225Ac]-FPI-1434 administration.
# [4] = system: Colo-205 (colorectal cancer) xenograft model; experiment: Example 3 in vivo efficacy of olaparib as single agent, Colo-205 xenograft
# Method: as §2
# [5] = system: Colo-205 (colorectal cancer) xenograft model; experiment: Example 6 in vivo combination study at multiple dose levels, Colo-205 xenograft; conditions: lower effective doses: [225Ac]-FPI-1434 20 nCi, olaparib 25 mg/kg i.p. 5 days on, 2 days off from 24 hours after FPI-1434 until day 30
# Method: An in vivo study was conducted with [^225Ac]-FPI-1434 and olaparib in a Colo-205 (colorectal cancer) xenograft model, with [^225Ac]-FPI-1434 administered at a dose of 20 nCi, 50 nCi, or 100 nCi. In combination groups (n=5), animals were dosed with olaparib (i.p.) starting at 24 hours after [^225Ac]-FPI-1434 administration according to a 5 days on, 2 days off schedule using 25 or 50 mg/kg doses until day 30 after [^225Ac]-FPI-1434 administration (“day 0”).
# Relative tumor volume was evaluated at various time points after administration. […] FIG. 13A-13C show results using 20 nCi (FIG. 13A), 50 nCi (FIG. 13B), or 100 nCi (FIG. 13C) [^225Ac]-FPI-1434 with olaparib (25 mg/kg or 50 mg/kg).
# [6] = system: Colo-205 (colorectal cancer) xenograft model; experiment: Example 4 in vivo synergy study, olaparib dosing schedule 1, Colo-205 xenograft; conditions: [225Ac]-FPI-1434 50 nCi, olaparib 50 mg/kg i.p. 5 days on, 2 days off for 28 days, pre-dosed 3 times prior to FPI-1434, up to 28 days
# Method: as §3, §1
# [7] = olaparib i.p. 5 days on, 2 days off, 10-100 mg/kg
smiles,measurement,setting,value
O=C(c1cc(Cc2n[nH]c(=O)c3ccccc23)ccc1F)N1CCN(C(=O)C2CC2)CC1 [olaparib],Relative tumor volume,[1],significant reduction in tumor volume overtime
same,"DSB formation (y-H2AX foci, immunohistochemical analysis)",y-H2AX foci,no increase in DSB formation
same,Dose response of tumor volume effect,[2]; olaparib 10-100 mg/kg doses,did not appear to be a dose response
same,Relative tumor volume (efficacy as a single agent),[2]; [7],modest efficacy as a single agent
same,Relative tumor volume,[3],no apparent difference in tumor volume over time
same,Dose response of tumor volume effect,[4]; olaparib 10-100 mg/kg doses,did not appear to be a dose response
same,Relative tumor volume (efficacy as a single agent),[4]; [7],modest efficacy as a single agent
same,Relative tumor volume,[5],no or limited therapeutic effect
same,Relative tumor volume,[6],some reduction in tumor volume over time
